Assay results from ChEMBL document CHEMBL5055685, “Discovery of the First Potent IDO1/IDO2 Dual Inhibitors: A Promising Strategy for Cancer Immunotherapy” (J Med Chem, 2021).
Activity calls are given as the source filed them. The calls are words filed in the database; no cut-off is given here.

Legend:
[1] = molecular target: Serine/threonine-protein kinase NIM1 (Homo sapiens) (UniProt Q8IY84); assay: Inhibition of NIM1 (unknown origin) at 1 uM
[2] = Tmax in Sprague-Dawley rat at 50 mg/kg, po; format: ADME, organism-based; conditions: in vivo
[3] = molecular target: Calcium/calmodulin-dependent protein kinase type II subunit alpha (Homo sapiens) (UniProt Q9UQM7); assay: Inhibition of CAMK2A (unknown origin) at 1 uM
[4] = Apparent permeability across apical to basolateral side in human Caco-2 cells; format: ADME, cell-based
[5] = Protein binding in human plasma assessed as fraction unbound by equilibrium dialysis; format: ADME, cell-free
[6] = molecular target: Serine/threonine-protein kinase Chk2 (Homo sapiens) (UniProt O96017); assay: Inhibition of CHK2 (unknown origin) at 1 uM
[7] = molecular target: Ribosomal protein S6 kinase beta-2 (Homo sapiens) (UniProt Q9UBS0); assay: Inhibition of p70S6Kb (unknown origin) at 1 uM
[8] = molecular target: Cyclin-dependent kinase 5/CDK5 activator 1 (Homo sapiens) (UniProt Q00535+Q15078); assay: Inhibition of CDK5/p25 (unknown origin) at 1 uM; format: protein-complex assay
[9] = molecular target: Dual specificity mitogen-activated protein kinase kinase 5 (Homo sapiens) (UniProt Q13163); assay: Inhibition of MEK5 (unknown origin) at 1 uM
[10] = molecular target: Aurora kinase A (Homo sapiens) (UniProt O14965); assay: Inhibition of Aurora A (unknown origin) at 1 uM
Mus musculus [11] = assay: In vivo inhibition of IDO1/IDO2 in BALB/c mouse xenografted with human HCT-116 cells assessed as downregulation of Foxp3 expression in tumor by immunohistochemical assay; format: functional, organism-based
[12] = Protein binding in monkey plasma assessed as fraction unbound by equilibrium dialysis; format: ADME, cell-free, Macaca mulatta; conditions: rhesus monkey
[13] = molecular target: Tyrosine-protein kinase Fyn (Homo sapiens) (UniProt P06241); assay: Inhibition of FYN (unknown origin) at 1 uM
[14] = molecular target: TGF-beta receptor type-2 (Homo sapiens) (UniProt P37173); assay: Inhibition of TGFBR2 (unknown origin) at 1 uM
[15] = molecular target: Serine/threonine-protein kinase Nek3 (Homo sapiens) (UniProt P51956); assay: Inhibition of NEK3 (unknown origin) at 1 uM
[16] = molecular target: Serine/threonine-protein kinase MRCK alpha (Homo sapiens) (UniProt Q5VT25); assay: Inhibition of MRCKalpha (unknown origin) at 1 uM
[17] = molecular target: Tyrosine-protein kinase Fes/Fps (Homo sapiens) (UniProt P07332); assay: Inhibition of FES (unknown origin) at 1 uM
[18] = Clearance in rat liver microsomes; format: ADME, Microsome; conditions: read-out: CLH
[19] = molecular target: Serine/threonine-protein kinase MRCK beta (Homo sapiens) (UniProt Q9Y5S2); assay: Inhibition of MRCKbeta (unknown origin) at 1 uM
[20] = molecular target: Tyrosine-protein kinase receptor UFO (Homo sapiens) (UniProt P30530); assay: Inhibition of AXL (unknown origin) at 1 uM
[21] = molecular target: Ribosomal protein S6 kinase alpha-5 (Homo sapiens) (UniProt O75582); assay: Inhibition of MSK1 (unknown origin) at 1 uM
[22] = molecular target: Casein kinase I isoform alpha-like (Homo sapiens) (UniProt Q8N752); assay: Inhibition of CK1a1L (unknown origin) at 1 uM
[23] = molecular target: Mitogen-activated protein kinase kinase kinase 10 (Homo sapiens) (UniProt Q02779); assay: Inhibition of MLK2 (unknown origin) at 1 uM
[24] = molecular target: Serine/threonine-protein kinase 32B (Homo sapiens) (UniProt Q9NY57); assay: Inhibition of STK32B (unknown origin) at 1 uM
[25] = molecular target: Serine/threonine-protein kinase DCLK1 (Homo sapiens) (UniProt O15075); assay: Inhibition of DCAMKL1 (unknown origin) at 1 uM
[26] = molecular target: Rho-associated protein kinase 2 (Homo sapiens) (UniProt O75116); assay: Inhibition of ROCK2 (unknown origin) at 1 uM
Rattus norvegicus = assay: Toxicity in rat assessed as weight loss at […]; format: organism-based; conditions: in vivo
[27] = molecular target: Epithelial discoidin domain-containing receptor 1 (Homo sapiens) (UniProt Q08345); assay: Inhibition of DDR1 (unknown origin) at 1 uM
[28] = molecular target: Serine/threonine-protein kinase 38-like (Homo sapiens) (UniProt Q9Y2H1); assay: Inhibition of STK38L (unknown origin) at 1 uM
[29] = molecular target: Serine/threonine-protein kinase Nek11 (Homo sapiens) (UniProt Q8NG66); assay: Inhibition of NEK11 (unknown origin) at 1 uM
[30] = molecular target: Tyrosine-protein kinase JAK3 (Homo sapiens) (UniProt P52333); assay: Inhibition of JAK3 (unknown origin) at 1 uM
Mus musculus [31] = assay: In vivo inhibition of TDO in BALB/c mouse xenografted with human HCT-116 cells assessed as suppression of TDO mRNA expression in tumor by quantitative RT-PCR analysis; format: functional, organism-based
[32] = molecular target: Cyclin-dependent kinase 2/cyclin E1 (Homo sapiens) (UniProt P24864+P24941); assay: Inhibition of CDK2/cyclin-E (unknown origin) at 1 uM; format: protein-complex assay
[33] = molecular target: Mitogen-activated protein kinase kinase kinase 8 (Homo sapiens) (UniProt P41279); assay: Inhibition of COT1 (unknown origin) at 1 uM
[34] = molecular target: Vascular endothelial growth factor receptor 2 (Homo sapiens) (UniProt P35968); assay: Inhibition of KDR (unknown origin) at 1 uM
[35] = molecular target: Indoleamine 2,3-dioxygenase 1 (Mus musculus) (UniProt P28776); assay: In vivo inhibition of IDO1 in BALB/c mouse xenografted with human HCT-116 cells assessed as suppression of IDO1 expression in tumor by immunohistochemical assay; format: functional, organism-based
[36] = molecular target: PAS domain-containing serine/threonine-protein kinase (Homo sapiens) (UniProt Q96RG2); assay: Inhibition of PASK (unknown origin) at 1 uM
[37] = molecular target: Interleukin-1 receptor-associated kinase 1 (Homo sapiens) (UniProt P51617); assay: Inhibition of IRAK1 (unknown origin) at 1 uM
[38] = molecular target: Ephrin type-B receptor 4 (Homo sapiens) (UniProt P54760); assay: Inhibition of EPHB4 (unknown origin) at 1 uM
[39] = Half life in dog liver microsomes assessed as rate constant; format: ADME, Canis lupus familiaris, Microsome
[40] = molecular target: Mitogen-activated protein kinase kinase kinase 21 (Homo sapiens) (UniProt Q5TCX8); assay: Inhibition of MLK4 (unknown origin)at 1 uM
[41] = molecular target: Mitogen-activated protein kinase 12 (Homo sapiens) (UniProt P53778); assay: Inhibition of p38gamma (unknown origin) at 1 uM
HCT-116 = assay: Antitumor immunity in BALB/c mouse xenografted with human HCT-116 cells assessed as necrotic Treg cells in tumor-draining lymph nodes by propidium iodide staining based flow cytometry analysis (reference value: 3.91 %); format: functional
[42] = Metabolic stability in dog liver microsomes assessed as rate constant; format: ADME, Canis lupus familiaris, Microsome
[43] = molecular target: Mitogen-activated protein kinase kinase kinase 2 (Homo sapiens) (UniProt Q9Y2U5); assay: Inhibition of MEKK2 (unknown origin) at 1 uM

Sequence of Ribosomal protein S6 kinase alpha-5 (Homo sapiens) (O75582 whole entry, looked up, canonical isoform): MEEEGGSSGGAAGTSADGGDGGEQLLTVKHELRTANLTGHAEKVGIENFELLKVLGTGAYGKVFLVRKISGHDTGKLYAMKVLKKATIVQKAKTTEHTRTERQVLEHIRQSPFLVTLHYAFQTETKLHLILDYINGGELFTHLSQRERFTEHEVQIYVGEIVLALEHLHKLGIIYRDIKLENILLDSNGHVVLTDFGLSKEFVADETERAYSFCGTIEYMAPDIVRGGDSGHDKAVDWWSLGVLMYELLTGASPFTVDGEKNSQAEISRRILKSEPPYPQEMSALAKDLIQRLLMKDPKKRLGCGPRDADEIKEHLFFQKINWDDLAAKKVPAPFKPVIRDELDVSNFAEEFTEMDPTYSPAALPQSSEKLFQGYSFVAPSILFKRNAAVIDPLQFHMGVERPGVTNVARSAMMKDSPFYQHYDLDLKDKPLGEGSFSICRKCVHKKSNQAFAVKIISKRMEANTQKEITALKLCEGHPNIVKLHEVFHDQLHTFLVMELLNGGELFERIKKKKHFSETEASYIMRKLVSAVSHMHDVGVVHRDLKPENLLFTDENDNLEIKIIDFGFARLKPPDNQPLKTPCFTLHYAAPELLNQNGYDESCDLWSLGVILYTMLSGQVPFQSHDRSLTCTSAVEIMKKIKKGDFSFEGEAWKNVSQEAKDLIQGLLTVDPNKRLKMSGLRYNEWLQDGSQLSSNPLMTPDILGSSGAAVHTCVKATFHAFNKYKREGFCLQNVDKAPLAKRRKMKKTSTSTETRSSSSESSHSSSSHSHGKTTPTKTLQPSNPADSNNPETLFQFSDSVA
Sequence of Serine/threonine-protein kinase Nek3 (Homo sapiens) (P51956 whole entry): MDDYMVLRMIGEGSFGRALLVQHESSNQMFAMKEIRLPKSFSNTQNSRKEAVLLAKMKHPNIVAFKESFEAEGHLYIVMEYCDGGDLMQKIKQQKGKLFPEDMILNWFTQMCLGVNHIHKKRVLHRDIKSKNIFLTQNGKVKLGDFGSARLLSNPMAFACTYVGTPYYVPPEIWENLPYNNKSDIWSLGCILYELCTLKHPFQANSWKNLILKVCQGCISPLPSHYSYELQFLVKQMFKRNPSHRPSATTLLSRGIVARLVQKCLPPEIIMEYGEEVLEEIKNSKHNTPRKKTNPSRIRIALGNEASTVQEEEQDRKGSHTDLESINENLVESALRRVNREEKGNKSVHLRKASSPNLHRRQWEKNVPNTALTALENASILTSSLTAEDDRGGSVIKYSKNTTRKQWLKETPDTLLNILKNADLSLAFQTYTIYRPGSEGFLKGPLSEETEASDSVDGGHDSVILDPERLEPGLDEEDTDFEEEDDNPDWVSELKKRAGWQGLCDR
Sequence of Serine/threonine-protein kinase MRCK alpha (Homo sapiens) (Q5VT25 whole entry): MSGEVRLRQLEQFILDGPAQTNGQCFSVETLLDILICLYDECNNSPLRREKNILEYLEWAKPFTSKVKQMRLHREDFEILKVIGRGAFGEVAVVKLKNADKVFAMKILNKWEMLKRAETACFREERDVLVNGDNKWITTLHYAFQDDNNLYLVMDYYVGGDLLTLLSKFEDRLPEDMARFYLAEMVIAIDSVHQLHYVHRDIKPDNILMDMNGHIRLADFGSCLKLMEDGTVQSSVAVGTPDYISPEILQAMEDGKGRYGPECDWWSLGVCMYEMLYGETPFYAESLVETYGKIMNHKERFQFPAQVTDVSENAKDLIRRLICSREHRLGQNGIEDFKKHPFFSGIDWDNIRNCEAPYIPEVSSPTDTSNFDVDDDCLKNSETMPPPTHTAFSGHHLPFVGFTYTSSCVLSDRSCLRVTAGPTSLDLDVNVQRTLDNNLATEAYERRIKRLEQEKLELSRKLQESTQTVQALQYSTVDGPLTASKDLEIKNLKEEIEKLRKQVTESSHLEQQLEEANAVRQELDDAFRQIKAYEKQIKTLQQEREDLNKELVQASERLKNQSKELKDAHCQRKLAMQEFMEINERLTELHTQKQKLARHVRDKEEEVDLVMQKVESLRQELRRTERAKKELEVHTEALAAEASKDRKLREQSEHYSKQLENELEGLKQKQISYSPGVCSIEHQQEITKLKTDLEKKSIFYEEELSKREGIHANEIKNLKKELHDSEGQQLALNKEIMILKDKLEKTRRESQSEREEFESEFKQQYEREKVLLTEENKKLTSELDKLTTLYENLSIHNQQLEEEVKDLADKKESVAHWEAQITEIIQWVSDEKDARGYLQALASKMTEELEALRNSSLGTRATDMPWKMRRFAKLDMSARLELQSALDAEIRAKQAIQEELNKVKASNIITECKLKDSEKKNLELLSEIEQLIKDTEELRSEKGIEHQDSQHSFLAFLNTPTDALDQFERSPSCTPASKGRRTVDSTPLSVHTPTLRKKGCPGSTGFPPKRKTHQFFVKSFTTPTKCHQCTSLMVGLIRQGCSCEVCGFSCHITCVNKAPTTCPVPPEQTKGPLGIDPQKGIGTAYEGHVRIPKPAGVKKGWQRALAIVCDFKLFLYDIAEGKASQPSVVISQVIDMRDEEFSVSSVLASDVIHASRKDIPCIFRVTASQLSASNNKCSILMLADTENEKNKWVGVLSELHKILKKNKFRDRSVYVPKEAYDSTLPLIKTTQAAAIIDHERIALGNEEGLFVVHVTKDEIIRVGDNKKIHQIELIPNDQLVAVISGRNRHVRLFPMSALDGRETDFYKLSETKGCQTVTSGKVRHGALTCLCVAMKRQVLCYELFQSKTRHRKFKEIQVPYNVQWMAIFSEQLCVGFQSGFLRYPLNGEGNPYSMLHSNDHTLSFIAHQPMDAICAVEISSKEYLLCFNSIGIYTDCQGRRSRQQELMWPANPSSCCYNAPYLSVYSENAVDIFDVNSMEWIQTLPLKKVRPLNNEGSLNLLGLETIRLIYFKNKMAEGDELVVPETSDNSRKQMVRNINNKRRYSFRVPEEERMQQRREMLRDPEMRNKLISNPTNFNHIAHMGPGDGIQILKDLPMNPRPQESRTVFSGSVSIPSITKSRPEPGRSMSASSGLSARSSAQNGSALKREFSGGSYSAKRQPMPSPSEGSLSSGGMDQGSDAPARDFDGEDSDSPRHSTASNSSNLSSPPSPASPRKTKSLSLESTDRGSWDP
Sequence of Serine/threonine-protein kinase 38-like (Homo sapiens) (Q9Y2H1 2-464 limits assumed): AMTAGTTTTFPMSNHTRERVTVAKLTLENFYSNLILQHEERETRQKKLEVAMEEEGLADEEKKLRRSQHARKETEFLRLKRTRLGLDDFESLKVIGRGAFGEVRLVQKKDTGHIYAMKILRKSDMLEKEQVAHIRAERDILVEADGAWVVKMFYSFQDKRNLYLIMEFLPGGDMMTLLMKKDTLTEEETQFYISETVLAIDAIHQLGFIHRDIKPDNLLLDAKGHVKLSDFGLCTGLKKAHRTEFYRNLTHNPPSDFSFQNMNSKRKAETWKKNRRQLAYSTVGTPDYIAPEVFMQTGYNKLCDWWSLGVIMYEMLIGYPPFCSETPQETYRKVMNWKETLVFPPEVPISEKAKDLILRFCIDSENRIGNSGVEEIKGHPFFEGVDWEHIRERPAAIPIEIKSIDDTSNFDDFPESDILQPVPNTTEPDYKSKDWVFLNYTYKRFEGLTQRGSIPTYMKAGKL
Sequence of Serine/threonine-protein kinase Nek11 (Homo sapiens) (Q8NG66 whole entry): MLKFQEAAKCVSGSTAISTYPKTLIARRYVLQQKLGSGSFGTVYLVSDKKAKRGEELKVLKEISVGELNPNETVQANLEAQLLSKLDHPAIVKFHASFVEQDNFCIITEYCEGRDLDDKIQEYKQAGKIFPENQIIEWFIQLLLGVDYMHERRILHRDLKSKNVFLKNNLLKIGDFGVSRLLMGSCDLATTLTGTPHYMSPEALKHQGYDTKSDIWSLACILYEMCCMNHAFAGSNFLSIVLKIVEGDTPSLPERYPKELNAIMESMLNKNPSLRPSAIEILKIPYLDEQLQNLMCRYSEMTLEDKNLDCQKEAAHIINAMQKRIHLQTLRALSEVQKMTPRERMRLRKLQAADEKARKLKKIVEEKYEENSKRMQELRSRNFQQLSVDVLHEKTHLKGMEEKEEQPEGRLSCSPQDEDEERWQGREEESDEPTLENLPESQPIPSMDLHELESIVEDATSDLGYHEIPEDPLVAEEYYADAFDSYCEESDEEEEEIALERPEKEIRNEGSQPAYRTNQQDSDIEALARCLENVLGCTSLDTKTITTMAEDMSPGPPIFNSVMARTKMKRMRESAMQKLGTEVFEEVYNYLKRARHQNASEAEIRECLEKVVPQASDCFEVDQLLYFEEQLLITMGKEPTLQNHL
Sequence of Interleukin-1 receptor-associated kinase 1 (Homo sapiens) (P51617 whole entry, looked up): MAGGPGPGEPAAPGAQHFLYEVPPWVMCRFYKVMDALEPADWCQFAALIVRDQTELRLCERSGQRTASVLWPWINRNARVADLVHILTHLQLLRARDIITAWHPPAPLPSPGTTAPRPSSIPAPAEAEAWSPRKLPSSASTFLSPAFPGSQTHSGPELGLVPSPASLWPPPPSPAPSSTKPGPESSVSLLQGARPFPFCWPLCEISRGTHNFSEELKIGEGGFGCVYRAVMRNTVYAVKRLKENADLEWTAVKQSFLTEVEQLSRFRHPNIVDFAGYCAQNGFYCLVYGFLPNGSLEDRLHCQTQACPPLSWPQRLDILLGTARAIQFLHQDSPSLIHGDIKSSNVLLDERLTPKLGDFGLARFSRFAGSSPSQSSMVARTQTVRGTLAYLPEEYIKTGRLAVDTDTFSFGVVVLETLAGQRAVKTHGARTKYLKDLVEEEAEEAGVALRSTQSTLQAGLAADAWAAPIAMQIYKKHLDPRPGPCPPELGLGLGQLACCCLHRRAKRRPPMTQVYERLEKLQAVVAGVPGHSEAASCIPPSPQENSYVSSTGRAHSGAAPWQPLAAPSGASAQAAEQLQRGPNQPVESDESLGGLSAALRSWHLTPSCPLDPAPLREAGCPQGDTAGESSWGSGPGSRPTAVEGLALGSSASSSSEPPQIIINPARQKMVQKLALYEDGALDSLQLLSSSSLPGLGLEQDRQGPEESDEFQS

## OCCOCc1cn(CCNc2nonc2/C(=N/O)Nc2ccc(F)c(Br)c2)nn1
[1]
  inhibition: inactive
[2]
  Tmax: 78 min
[3]
  inhibition: inactive
[4]
  Papp A→B: 7.2 ×10⁻⁶ cm/s
[5]
  fraction unbound: 0.0411
[6]
  inhibition: inactive
[7]
  inhibition: inactive
[8]
  inhibition: inactive
[9]
  inhibition: inactive
[10]
  inhibition: inactive
Mus musculus [11]
  inhibition: Active
[12]
  fraction unbound: 0.0763
[13]
  inhibition: inactive
[14]
  inhibition: inactive
[15]
  inhibition: inactive
[16]
  inhibition: inactive
[17]
  inhibition: inactive
[18]
  microsomal CLint: 65.3 µL/min/mg
[19]
  inhibition: inactive
[20]
  inhibition: inactive
[21]
  inhibition: inactive
[22]
  inhibition: inactive
[23]
  inhibition: inactive
[24]
  inhibition: inactive
[25]
  inhibition: inactive
[26]
  inhibition: inactive
Rattus norvegicus
  Activity: Non-Toxic
[27]
  inhibition: inactive
[28]
  inhibition: inactive
[29]
  inhibition: inactive
[30]
  inhibition: inactive
Mus musculus [31]
  inhibition: inactive
[32]
  inhibition: inactive
[33]
  inhibition: inactive
[34]
  inhibition: inactive
[35]
  inhibition: Active
[36]
  inhibition: inactive
[37]
  inhibition: inactive
[38]
  inhibition: inactive
[39]
  half-life: 5.66 min
[40]
  inhibition: inactive
[41]
  inhibition: inactive
HCT-116
  Activity: 0.73%
[42]
  k el: 0.00205 s⁻¹
[43]
  inhibition: inactive
